{
  "source": "EPA's ToxValDB 9.5 (doi:10.2903/j.efsa.2005.34ar)",
  "key": {"Typhlodromus pyri": {"system": "Typhlodromus pyri", "experiment": "LR50; higher = less toxic", "conditions": "acute; duration: 14 days; mortality"}, "Aphidius rhopalosiphi": {"system": "Aphidius rhopalosiphi", "experiment": "LR50; higher = less toxic", "conditions": "not reported; duration: 14 days; mortality"}, "Tagia sp.": {"system": "Tagia sp.", "conditions": "acute; mortality"}, "Lepomis macrochirus": {"system": "Lepomis macrochirus", "conditions": "acute; duration: 96 hours; mortality"}, "Daphnia magna": {"system": "Daphnia magna", "conditions": "chronic/long-term; duration: 21 days; reproduction"}, "Oncorhynchus mykiss": {"system": "Oncorhynchus mykiss", "conditions": "chronic/long-term; duration: 21 days"}, "Canidae": {"system": "Canidae", "conditions": "chronic; duration: 1 years; oral; Dog Other; clinical signs"}, "Apis mellifera": {"system": "Apis mellifera", "conditions": "acute, mortality"}},
  "data": [
    {"smiles": "C#CCOC(=O)[C@@H](C)Oc1ccc(Oc2ncc(Cl)cc2F)cc1", "note": "[Clodinafop-propargyl]", "values": [
      {"measurement": "LR50", "setting": "Typhlodromus pyri", "value": 20, "unit": "g/ha"},
      {"measurement": "LR50", "setting": "Aphidius rhopalosiphi", "value": 3.1, "unit": "g/ha"},
      {"measurement": "LD50", "setting": "Rattus norvegicus; acute, oral, M, mortality", "value": 1390, "unit": "mg/kg"},
      {"measurement": "NOAEL", "setting": "Rattus norvegicus; chronic, duration: 2 years, oral, clinical signs", "value": 0.32, "unit": "mg/kg-day"},
      {"measurement": "NOAEL", "setting": "Rattus norvegicus; developmental, development", "value": 5, "unit": "mg/kg-day"},
      {"measurement": "NOAEL", "setting": "Rattus norvegicus; reproduction developmental, reproduction", "value": 4.63, "unit": "mg/kg-day"},
      {"measurement": "LC50", "setting": "Tagia sp.", "value": 197, "unit": "mg/kg"},
      {"measurement": "LC50", "setting": "Lepomis macrochirus", "value": 0.21, "unit": "µg/mL"},
      {"measurement": "NOEC", "setting": "Daphnia magna", "value": 0.23, "unit": "mg/L"},
      {"measurement": "LC50", "setting": "Colinus virginianus; acute, oral, diet, mortality", "value": "> 980", "unit": "mg/kg-day"},
      {"measurement": "LD50", "setting": "Colinus virginianus; acute, oral, mortality", "value": 1360, "unit": "mg/kg"},
      {"measurement": "NOEC", "setting": "Colinus virginianus; reproduction developmental", "value": 43, "unit": "mg/kg-day"},
      {"measurement": "NOEC", "setting": "Oncorhynchus mykiss", "value": 0.1, "unit": "mg/L"},
      {"measurement": "NOAEL", "setting": "Canidae", "value": 3.4, "unit": "mg/kg-day"},
      {"measurement": "LD50", "setting": "Apis mellifera; dermal", "value": 40.9, "unit": "µg/piece"},
      {"measurement": "LD50", "setting": "Apis mellifera; duration: 48 hours, oral, unspecified", "value": "> 93.7", "unit": "µg/piece"}
    ]}
  ]
}
